# Results as given in PubChem BioAssay AID1996.
# Conditions: buffer; pH 7.4; 200.0 µM
row,SMILES,solubility kinetic [µg/mL]
1,COCC(C)NC(=O)COc1nncc2ccccc12 (stereo not drawn),> 41.3
2,CCOC(=O)COc1ccc2c(c1)c(C(C)=O)c(C)n2-c1ccccc1,< 0.8
3,NS(=O)(=O)c1ccc(CCNC(=O)c2cnccn2)cc1,> 46
4,COc1ccccc1C(CNc1ncccc1[N+](=O)[O-])N(C)C (stereo not drawn),> 47.5
5,Cc1ccc(NC(=O)C(C)OC(=O)CSc2ccccc2)cc1 (stereo not drawn),> 49.4
6,COc1ccc(NC(=O)C2C3CC/C=C\CCC32)cc1 (stereo not drawn),< 0.6
7,O=C(O)c1ccc(N2C(=O)CSC2c2cccc([N+](=O)[O-])c2)cc1 (stereo not drawn),> 51.7
8,Cc1cc(Cl)ccc1NC(=O)CCC(=O)N/N=C/c1cccnc1,> 51.7
9,Nc1nc(CCOc2ccc(F)cc2)cs1,34.3
10,CCOc1ccc(NC(=O)c2cc3ccccc3cc2OC)cc1,< 0.7
11,CCOC(=O)C1CCCN(CC(O)COCc2ccccc2OC)C1 (stereo not drawn),> 52.7
12,Cc1ccc2oc(=O)c(/C=C(\O)c3ccco3)nc2c1,31.7
13,Cc1ccc(C(=O)NCc2ccc3c(c2)OCO3)cc1Cl,< 0.7
14,Fc1ccc(OCc2nc(-c3cccs3)no2)cc1,0.8
15,O=C(Nc1ccccc1)Oc1cccc(Br)c1,35.9
16,COc1ccc(CNC(=O)C2CCN(S(C)(=O)=O)CC2)cc1,45.2
17,CC1CCCCN1C(=O)c1ccc(C(=O)c2ccccc2)cc1 (stereo not drawn),> 46.1
18,CCCCN(C)C(=O)C1CCN(Cc2cccnc2)CC1,> 43.4
19,O=S(=O)(c1ccc(-c2ccccc2)cc1)N1CCCCC1,< 0.6
20,CN1CCN(c2ccc(CNS(=O)(=O)c3cccc(F)c3)cc2)CC1,6.7
21,COc1cccc(C(=O)OCC(=O)NC(=O)NC2CCCC2)c1O,38.5
22,O=C(Cc1cccs1)N1CCN=C1SCc1cccc(F)c1,12.6
23,Cc1ccc(-n2c(=O)[nH]c3c(oc4ccccc43)c2=O)cc1,38.8
24,O=C(Cc1ccccc1[N+](=O)[O-])NC1CC2CCC1C2 (stereo not drawn),> 41.1

row,SMILES,solubility kinetic [µg/mL]
1,Cc1nc(Cl)sc1C(=O)Nc1cc(F)cc(F)c1,20.7
2,NC(=O)C(Cc1ccccc1)NC(=O)C12CC3CC(CC(C3)C1)C2 (stereo not drawn),48.1
3,Cc1ccc(-n2c(C)nc3ccsc3c2=O)cc1,> 38.4
4,O=[N+]([O-])c1cccc(CN2CCN(c3cccc4[nH]ccc34)CC2)c1,44
5,CN1CCN(c2nc3ccccc3o2)CC1,> 32.6
6,O=C(NC1CCNCC1)C1CC1,> 25.2
7,O=C(c1cc(O)c(O)c([N+](=O)[O-])c1)c1ccccc1F,> 41.6
8,CCOc1ccccc1C(=O)NC1CCN(Cc2ccccc2)CC1,36.8
9,Cc1[nH]c2ccc(C(=O)N3CCN(Cc4ccccc4)CC3)cc2c1C,> 52.1
10,O=c1c2cc(NC(=S)NC3CC3)ccc2nc2n1CCCCC2,34.7
11,COc1cccc(CNC(=O)COC(=O)/C=C/c2ccc(SC)cc2)c1,3.8
12,CCC(OC(=O)CN1C(=O)c2ccccc2C1=O)C(=O)NC1CCCC1 (stereo not drawn),52.1
13,CCOC(=O)c1ccc(NS(=O)(=O)c2cn(C)cn2)cc1,> 46.4
14,COC(=O)c1[nH]c2cccc(OC)c2c1NC(=O)CCN1CCSCC1,54.6
15,Cc1ccc(C)c(/C=C2\N=C(c3ccccc3F)OC2=O)c1,11.8
16,Cc1ccc(SCCNC(=O)c2ccc([N+](=O)[O-])c(C)c2)cc1,9.5
17,CCN(CC)S(=O)(=O)c1ccc(N2CCOCC2)c(NC(=O)c2[nH]c(C)c(C(C)=O)c2C)c1,3.9
18,Cc1ccc(-c2nc3ccccn3c2C=O)cc1,8.5
19,COc1cc2ncnc(N[C@H](C)c3ccccc3)c2cc1OC,> 46.4
20,Cc1ccc(NC(=O)C2CCCN2C(=O)NC2CCCCC2)cc1 (stereo not drawn),1.9
21,COC(=O)Cc1ccc(NC(=S)N2CCCCC2C)cc1 (stereo not drawn),> 46
22,CC1CCc2sc3ncnc(N4CCN(CCO)CC4)c3c2C1 (stereo not drawn),> 49.9
23,COc1ccc2cc(C(=O)N3CCN(C)CC3)[nH]c2c1,> 41
24,O=C(COC(=O)c1ccc(Br)o1)Nc1ccc2c(c1)OCCO2,5.1

row,SMILES,solubility kinetic [µg/mL]
1,CSc1ncccc1C(=O)OCC(=O)N1CCc2ccccc21,2
2,CC1(C)Cc2c(C#N)c(SCC(=O)O)nc(N3CCOCC3)c2CO1,52.7
3,Cn1cc(C(C[N+](=O)[O-])c2ccccc2)c2ccccc21 (stereo not drawn),2.6
4,O=C(NCC(O)c1ccc([N+](=O)[O-])cc1)Nc1ccccc1 (stereo not drawn),42
5,CC(=O)N1CCN(C(=O)C2CCN(S(=O)(=O)c3ccccc3C(F)(F)F)CC2)CC1,> 67.1
6,O=C1CN=C(c2ccc(F)cc2)c2oc3ccccc3c2N1,0.4
7,O=C(NOCc1ccccc1)c1ccc([N+](=O)[O-])cc1,> 40.8
8,COc1ccc(NC(=O)NCCN2CCCCC2)cc1,33.9
9,O=C(CN1CCCc2ccccc21)Nc1ccccc1[N+](=O)[O-],0.5
10,COc1ccc(Nc2nc(-c3ccncc3)nc3ccccc23)cc1,0.6
11,CN(Cc1ccccc1)S(=O)(=O)c1ccc(NC(=O)C2CCCCC2C(=O)O)cc1 (stereo not drawn),> 64.6
12,O=C(COc1ccccc1/C=C1\SC(=S)NC1=O)Nc1ccc(F)cc1,3
13,O=C(O)c1cccc(-n2c(/C=C/c3ccccc3)nc3ccccc3c2=O)c1,> 55.3
14,COc1ccccc1NC(=O)O/N=C(\N)c1ccccc1,> 42.8
15,Nc1c(C(=O)Nc2ccccc2)sc2ncc([N+](=O)[O-])cc12,< 0.2
16,CC(C)OP(=O)(OC(C)C)C(NC(=O)c1ccccc1)C(N)=O (stereo not drawn),> 51.3
17,CCc1cccc(CC)c1NC(=O)C1CCN(C(=O)c2ccco2)CC1,51.2
18,COC(=O)CNC(c1ccccc1)c1cc(Br)ccc1N (stereo not drawn),5.5
19,O=C(CN1C(=O)NC2(CCCC2)C1=O)Nc1ccc(Cl)cc1F,49.8
20,COC(=O)c1ccc(NC(=O)C(=O)c2cccn2C)cc1,3.2
21,O=C(Nc1cccnc1)OC1CCCC1,29.5
22,COc1cccc(NC2=NCCCS2)c1,> 33.3
23,O=C(O)c1cc(-c2ccc(Cl)c(Cl)c2)n(-c2ccccc2)n1,> 50
24,Cc1ccc2c(c1)c1c3n2CCN(C=O)C3CCC1 (stereo not drawn),28.1

row,SMILES,solubility kinetic [µg/mL]
1,O=C(/C=C/c1ccccc1)N1CCOCC1,> 32.6
2,CN1CCN(c2oc(-c3ccc([N+](=O)[O-])cc3)nc2C#N)CC1,4.1
3,CCOc1ccc(NC(=O)CCC(=O)Oc2ccc(C)cc2)cc1,19.5
4,O=C(NCc1ccco1)C1CC(c2ccc(Cl)c(Cl)c2)=NO1 (stereo not drawn),1.4
5,O=C1CN(C(=O)COC(=O)[C@@H]2CC(O)CN2S(=O)(=O)c2ccc(Cl)cc2)c2ccccc2N1 (stereo partly drawn),> 74.1
6,COc1cc(CN2CCCCCC2)cc(OC)c1,30.6
7,COc1cccc(C(=O)c2c[nH]c(C(=O)NCc3cccnc3)c2)c1,> 50.3
8,Cc1ccc(OC(=O)CCC(=O)Nc2ccc(C)c(C)c2)cc1,43.2
9,Cc1cccc(NC(=O)c2cccc(N3C(=O)C4C5C=CC(C6CC56)C4C3=O)c2)c1 (stereo not drawn),1.5
10,COCCNC(=S)NCCc1ccc(Cl)cc1Cl,> 46.1
11,CC(=O)c1cccc(NC(=O)COC(=O)c2ccccn2)c1,35
12,CC(C)(C)c1csc(NC(=O)c2cccnc2)n1,10
13,CC(C)(C)c1ccc(SCCc2cccnc2)cc1,< 0.6
14,CN(Cc1ccccc1C#N)S(=O)(=O)c1cccs1,34.8
15,Fc1ccc(COc2ccc(C(=S)N3CCCC3)cc2)cc1,< 0.7
16,COc1ccc(-c2nc3ncccc3n2O)cc1,> 36.2
17,O=C(CN1C(=O)C(=O)c2ccccc21)c1ccc(Cl)cc1,1.9
18,Cc1cc(=O)[nH]c(SCc2ccc(Cl)cc2)n1,13.2
19,Cc1ccc(Nc2nc(-c3cccs3)cs2)nc1,0.8
20,CN(CC(=O)Nc1cccc(F)c1)C(=O)CC1CCCC1,> 43.9
21,CC(C)(C)NC(=O)N1CCCN(c2ccc(C(F)(F)F)cn2)CC1,> 51.7
22,O=S(=O)(c1cc(F)ccc1F)N1CCN(c2ncnc3ccccc23)CC1,56.7
23,O=C(CC(=O)c1ccccc1)Nc1cc([N+](=O)[O-])ccc1Cl,0.6
24,CC(=O)NC1C(Oc2ccccc2C)OC(CO)C(O)C1O (stereo not drawn),> 46.7

row,SMILES,solubility kinetic [µg/mL]
1,CC1CCCN(S(=O)(=O)c2cccc(C(=O)NCC3CCCO3)c2)C1 (stereo not drawn),> 55
2,Cc1cccc2cc(-c3nc4ccc(C(=O)O)cc4[nH]3)c(=O)oc12,26.9
3,Cc1nnc(SC(C)C(=O)NC2CCCCC2C)s1 (stereo not drawn),> 44.9
4,CC(=O)C(Sc1ncnc2sc3c(c12)CCCC3)C(C)=O,38.6
5,CC(NC(=O)c1ccc(C#N)cc1)C1CC2CCC1C2 (stereo not drawn),> 40.3
6,O=[N+]([O-])c1ccc2nc(NS(=O)(=O)c3ccc(F)cc3)sc2c1,49.7
7,CCCC[N+]12CCC(CC1)C(Cc1ccccc1)C2.[Br-] (stereo not drawn),> 50.7
8,CC1CC(C)CN(C(=O)COC(=O)COc2ccccc2C#N)C1 (stereo not drawn),> 49.6
9,CC(Oc1ccc(C#N)cc1)C(=O)NC1CCCC1 (stereo not drawn),> 38.7
10,CSc1ncc(C(=O)Nc2cccc(Cl)c2)c(C)n1,> 44.1
11,CC(C)CCNc1nc(N)c([N+](=O)[O-])c(N2CCCCCC2)n1,0.5
12,COCCNC(=O)Cn1nc(-c2ccccc2F)ccc1=O,> 45.8
13,O=C(Cc1ccc(F)cc1)N1CCN=C1SCc1cccc([N+](=O)[O-])c1,9.4
14,O=C(COC(=O)c1cccc(S(=O)(=O)N2CCOCC2)c1)NCc1ccc2c(c1)OCO2,66.8
15,CCOP(=O)(OCC)C(Cc1ccccc1)NC(C)=O (stereo not drawn),43.5
16,COC(=O)c1cc(OC)c(OC)cc1NC(=O)Nc1ccccc1F,2.4
17,Cc1cccc2c(=O)oc(-c3ccccc3Cl)nc12,< 0.6
18,Cc1ccc(C(=O)CCc2ccc(N)cc2)cc1,34.9
19,O=C(c1ccc([N+](=O)[O-])cc1)N1CCN(C(=O)C2CCCCC2)CC1,> 51.8
20,CC(=O)c1c(C)nc(-c2cccc([N+](=O)[O-])c2)n1O,> 39.2
21,CC1CCCCC1NC(=O)CCS(=O)(=O)c1ccc(Cl)cc1 (stereo not drawn),22.8
22,CN(CC(=O)c1c(N)n(C)c(=O)n(C)c1=O)c1ccccc1,> 45.3
